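Interpolation was linear, between the two tested concentrations surrounding the appropriate level; five concentrations were tested over 48 hours in 96-well plates. Here, GI50 denotes the concentration required for 50% inhibition of growth. TGI is the concentration that stops growth completely.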
Assays:
Assay in all cases: inhibition of tumour cell growth, NCI panel, 48 h
786-0 renal = test system: 786-0 renal
A498 renal = test system: A498 renal
A549 NSCLC = test system: A549 NSCLC
ACHN renal = test system: ACHN renal
BT-549 breast = test system: BT-549 breast
CAKI-1 renal = test system: CAKI-1 renal
CCRF-CEM leukemia = test system: CCRF-CEM leukemia
COLO 205 colon = test system: COLO 205 colon
DU-145 prostate = test system: DU-145 prostate
EKVX NSCLC = test system: EKVX NSCLC
HCC-2998 colon = test system: HCC-2998 colon
HCT-116 colon = test system: HCT-116 colon
HCT-15 colon = test system: HCT-15 colon
HL-60(TB) leukemia = test system: HL-60(TB) leukemia
HOP-62 NSCLC = test system: HOP-62 NSCLC
HOP-92 NSCLC = test system: HOP-92 NSCLC
HS 578T breast = test system: HS 578T breast
HT29 colon = test system: HT29 colon
IGROV1 ovarian = test system: IGROV1 ovarian
K-562 leukemia = test system: K-562 leukemia
KM12 colon = test system: KM12 colon
LOX IMVI melanoma = test system: LOX IMVI melanoma
M14 melanoma = test system: M14 melanoma
MALME-3M melanoma = test system: MALME-3M melanoma
MCF7 breast = test system: MCF7 breast
MDA-MB-231 breast = test system: MDA-MB-231 breast
MDA-MB-435 = test system: MDA-MB-435
MOLT-4 leukemia = test system: MOLT-4 leukemia
NCI-H226 lung = test system: NCI-H226 lung
NCI-H23 lung = test system: NCI-H23 lung
NCI-H460 lung = test system: NCI-H460 lung
NCI-H522 lung = test system: NCI-H522 lung
NCI/ADR-RES ovarian = test system: NCI/ADR-RES ovarian
OVCAR-3 ovarian = test system: OVCAR-3 ovarian
OVCAR-4 ovarian = test system: OVCAR-4 ovarian
OVCAR-5 ovarian = test system: OVCAR-5 ovarian
OVCAR-8 ovarian = test system: OVCAR-8 ovarian
PC-3 prostate = test system: PC-3 prostate
RPMI-8226 leukemia = test system: RPMI-8226 leukemia
RXF 393 renal = test system: RXF 393 renal
SF-268 CNS = test system: SF-268 CNS
SF-295 CNS = test system: SF-295 CNS
SF-539 CNS = test system: SF-539 CNS
SK-MEL-2 melanoma = test system: SK-MEL-2 melanoma
SK-MEL-28 melanoma = test system: SK-MEL-28 melanoma
SK-MEL-5 melanoma = test system: SK-MEL-5 melanoma
SK-OV-3 ovarian = test system: SK-OV-3 ovarian
SN12C renal = test system: SN12C renal
SNB-19 CNS = test system: SNB-19 CNS
SNB-75 CNS = test system: SNB-75 CNS
SR leukemia = test system: SR leukemia
SW-620 colon = test system: SW-620 colon
T-47D breast = test system: T-47D breast
TK-10 renal = test system: TK-10 renal
U251 CNS = test system: U251 CNS
UACC-257 melanoma = test system: UACC-257 melanoma
UACC-62 melanoma = test system: UACC-62 melanoma
UO-31 renal = test system: UO-31 renal

O=C1NC(=O)c2c1c1c3ccccc3ccc1c1[nH]c3ccccc3c21
GI50 (786-0 renal): 1.2 µM
TGI (786-0 renal): 16.6 µM
GI50 (A498 renal): 0.491 µM
TGI (A498 renal): 2.71 µM
GI50 (A549 NSCLC): 0.971 µM
TGI (A549 NSCLC): > 100 µM
GI50 (ACHN renal): 0.336 µM
TGI (ACHN renal): 13.2 µM
GI50 (BT-549 breast): 0.279 µM
TGI (BT-549 breast): 2.33 µM
GI50 (CAKI-1 renal): 0.228 µM
TGI (CAKI-1 renal): 11.7 µM
GI50 (CCRF-CEM leukemia): 0.457 µM
TGI (CCRF-CEM leukemia): > 68.7 µM
GI50 (COLO 205 colon): 1.3 µM
TGI (COLO 205 colon): > 100 µM
GI50 (DU-145 prostate): 0.96 µM
TGI (DU-145 prostate): > 100 µM
GI50 (EKVX NSCLC): 2.04 µM
TGI (EKVX NSCLC): > 58.4 µM
GI50 (HCC-2998 colon): 7.65 µM
TGI (HCC-2998 colon): > 100 µM
GI50 (HCT-116 colon): 0.852 µM
TGI (HCT-116 colon): > 100 µM
GI50 (HCT-15 colon): 0.593 µM
TGI (HCT-15 colon): > 100 µM
GI50 (HL-60(TB) leukemia): 0.233 µM
TGI (HL-60(TB) leukemia): > 100 µM
GI50 (HOP-62 NSCLC): 0.925 µM
TGI (HOP-62 NSCLC): 17.6 µM
GI50 (HOP-92 NSCLC): 0.857 µM
TGI (HOP-92 NSCLC): 7.42 µM
GI50 (HS 578T breast): 1.08 µM
TGI (HS 578T breast): > 31.5 µM
GI50 (HT29 colon): 0.631 µM
TGI (HT29 colon): > 91.1 µM
GI50 (IGROV1 ovarian): 0.529 µM
TGI (IGROV1 ovarian): > 56.2 µM
GI50 (K-562 leukemia): 0.543 µM
TGI (K-562 leukemia): > 91.1 µM
GI50 (KM12 colon): 0.115 µM
TGI (KM12 colon): > 100 µM
GI50 (LOX IMVI melanoma): 1.38 µM
TGI (LOX IMVI melanoma): > 100 µM
GI50 (M14 melanoma): 0.322 µM
TGI (M14 melanoma): > 100 µM
GI50 (MALME-3M melanoma): 0.207 µM
TGI (MALME-3M melanoma): 6.01 µM
GI50 (MCF7 breast): 0.327 µM
TGI (MCF7 breast): > 100 µM
GI50 (MDA-MB-231 breast): 1.15 µM
TGI (MDA-MB-231 breast): > 100 µM
GI50 (MDA-MB-435): 0.247 µM
TGI (MDA-MB-435): > 100 µM
GI50 (MOLT-4 leukemia): 0.444 µM
TGI (MOLT-4 leukemia): 7.48 µM
GI50 (NCI-H226 lung): 0.641 µM
GI50 (NCI-H23 lung): 0.699 µM
TGI (NCI-H23 lung): > 100 µM
GI50 (NCI-H460 lung): 0.4 µM
TGI (NCI-H460 lung): 24.4 µM
GI50 (NCI-H522 lung): 0.568 µM
TGI (NCI-H522 lung): 15.6 µM
GI50 (NCI/ADR-RES ovarian): 1.57 µM
TGI (NCI/ADR-RES ovarian): > 87 µM
GI50 (OVCAR-3 ovarian): 2.43 µM
TGI (OVCAR-3 ovarian): 19.3 µM
GI50 (OVCAR-4 ovarian): 1.79 µM
TGI (OVCAR-4 ovarian): 19.6 µM
GI50 (OVCAR-5 ovarian): 1.63 µM
TGI (OVCAR-5 ovarian): > 100 µM
GI50 (OVCAR-8 ovarian): 1.29 µM
TGI (OVCAR-8 ovarian): 24.8 µM
GI50 (PC-3 prostate): 0.42 µM
TGI (PC-3 prostate): 30.4 µM
GI50 (RPMI-8226 leukemia): 0.5 µM
TGI (RPMI-8226 leukemia): > 100 µM
GI50 (RXF 393 renal): 0.317 µM
TGI (RXF 393 renal): 1.84 µM
GI50 (SF-268 CNS): 1.43 µM
TGI (SF-268 CNS): 34.3 µM
GI50 (SF-295 CNS): 1.61 µM
TGI (SF-295 CNS): 14.6 µM
GI50 (SF-539 CNS): 0.663 µM
TGI (SF-539 CNS): 35.7 µM
GI50 (SK-MEL-2 melanoma): 1.2 µM
TGI (SK-MEL-2 melanoma): > 100 µM
GI50 (SK-MEL-28 melanoma): 0.911 µM
TGI (SK-MEL-28 melanoma): > 100 µM
GI50 (SK-MEL-5 melanoma): 1.16 µM
TGI (SK-MEL-5 melanoma): 26.6 µM
GI50 (SK-OV-3 ovarian): 0.354 µM
TGI (SK-OV-3 ovarian): 6.43 µM
GI50 (SN12C renal): 0.516 µM
TGI (SN12C renal): > 88.2 µM
GI50 (SNB-19 CNS): 2.51 µM
TGI (SNB-19 CNS): 17 µM
GI50 (SNB-75 CNS): 4.02 µM
TGI (SNB-75 CNS): 16.6 µM
GI50 (SR leukemia): 0.169 µM
TGI (SR leukemia): 2.92 µM
GI50 (SW-620 colon): 0.717 µM
TGI (SW-620 colon): > 100 µM
GI50 (T-47D breast): 0.524 µM
TGI (T-47D breast): > 70.9 µM
GI50 (TK-10 renal): 0.486 µM
TGI (TK-10 renal): 11.4 µM
GI50 (U251 CNS): 1.06 µM
TGI (U251 CNS): 15.7 µM
GI50 (UACC-257 melanoma): 3.74 µM
TGI (UACC-257 melanoma): > 80.4 µM
GI50 (UACC-62 melanoma): 0.749 µM
TGI (UACC-62 melanoma): > 62.3 µM
GI50 (UO-31 renal): 0.239 µM
TGI (UO-31 renal): 21.9 µM

— PubChem BioAssay (NCI)
